Among the test systems are 786-0; BT-549; DU-145; HCT-116; HOP-92; IGROV-1; LOX IMVI; MDA-MB-231; MDA-MB-435; MOLT-4; NCI-H226; NCI-H23; NCI-H460; PC-3; RPMI-8226; SF-268; SNB-19; SW-620; U-251; UACC-257.
What all share (assay): NCI tumour cell line growth inhibition, 48 h

The structures appear in SMILES notation.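 All cell lines were grown in 96-well plates and treated with compound for 48 hours. GI50: concentration for 50% inhibition of growth.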 Calls of active or inactive are those of the source. Rule as the data show it: active = GI50 up to about 1.1 µM and inactive = higher.

For `Nc1nc(O)c2c(n1)NCN(CCCN1CCOCC1)C2`, the GI50 in the experiment with 786-0, in the experiment with BT-549, with DU-145, in the experiment on HCT-116, in the experiment on HOP-92 and with IGROV-1 was > 100 µM (inactive) in each case. The GI50 with LOX IMVI was > 100 µM (inactive); in the experiment with MDA-MB-231 it was > 100 µM (inactive); in the experiment with MDA-MB-435 it was > 100 µM (inactive); in the experiment with MOLT-4, 46.7 µM (inactive); with NCI-H226, > 100 µM (inactive); with NCI-H23 it was > 100 µM (inactive). Besides, the GI50 in the experiment with NCI-H460, in the experiment with PC-3, in the experiment with RPMI-8226, in the experiment with SF-268, with SNB-19 and in the experiment with SW-620 was > 100 µM (inactive) in each case. Besides, the GI50 with U-251 and in the experiment on UACC-257 was > 100 µM (inactive) in each case.

As for `Cc1cc(C)c2c(c1)CC1(Cc3c(C)cc(C)cc3C1=O)C2=O` (stereo unspecified), the GI50 was > 100 µM (inactive) with 786-0; > 100 µM (inactive) with BT-549; > 100 µM (inactive) in the experiment on DU-145; > 100 µM (inactive) with HOP-92; 84.5 µM (inactive) with IGROV-1; > 100 µM (inactive) in the experiment with LOX IMVI. The GI50 in the experiment with MDA-MB-231, with MDA-MB-435, with MOLT-4, with NCI-H226, in the experiment with NCI-H460 and with PC-3 was > 100 µM (inactive) each time. For the same compound, the GI50 in the experiment with RPMI-8226, in the experiment with SF-268, in the experiment with SNB-19, in the experiment with SW-620, in the experiment on U-251 and with UACC-257 was > 100 µM (inactive) in each case.

As for `O=[N+]([O-])c1cccc2nc3ccccc3c(NCCc3cccc[n+]3[O-])c12`, the GI50 in the experiment with 786-0 is < 0.0168 µM (active); with BT-549, < 0.0165 µM (active); with DU-145, < 0.01 µM (active); with HCT-116 it was < 0.01 µM (active); in the experiment on HOP-92, < 0.0183 µM (active); with LOX IMVI it was 0.0299 µM (active). The GI50 with MDA-MB-231 is < 0.01 µM (active); in the experiment with MDA-MB-435 it was < 0.0116 µM (active); in the experiment with MOLT-4, < 0.0144 µM (active); with NCI-H226, 0.0738 µM (active); in the experiment on NCI-H23 it was < 0.0115 µM (active); with NCI-H460, < 0.0141 µM (active). Moreover, the GI50 in the experiment with PC-3 is < 0.0391 µM (active); with RPMI-8226 it was 0.0123 µM (active); with SF-268, < 0.0476 µM (active); in the experiment on SNB-19, 0.128 µM (active); in the experiment with SW-620, < 0.01 µM (active); in the experiment on U-251, < 0.038 µM (active). In the experiment on UACC-257, the GI50 is < 0.0231 µM (active).

For `O=c1c2c3c(sc2nc2n1sc1nc4sc5c(c4c(=O)n12)CCCC5)CCCC3`, the GI50 in the experiment on 786-0 was 17.3 µM (inactive); with BT-549, 21.9 µM (inactive); with DU-145 it was > 44.8 µM (inactive); in the experiment on HCT-116, 35.7 µM (inactive); in the experiment with HOP-92, 51.2 µM (inactive); in the experiment with IGROV-1, > 100 µM (inactive). Besides, the GI50 in the experiment on LOX IMVI was > 79.4 µM (inactive); in the experiment on MDA-MB-231 it was 25.9 µM (inactive); in the experiment on MDA-MB-435, 51.8 µM (inactive); with MOLT-4, 37.1 µM (inactive); in the experiment with NCI-H226, > 50.7 µM (inactive); with NCI-H23, 30.6 µM (inactive). Besides, the GI50 in the experiment with NCI-H460 is > 100 µM (inactive); in the experiment with PC-3, 54.5 µM (inactive); with RPMI-8226, 22.2 µM (inactive); in the experiment with SF-268 it was 42 µM (inactive); in the experiment with SNB-19, 92.9 µM (inactive); in the experiment on SW-620, 28.8 µM (inactive). Also, the GI50 is > 83 µM (inactive) in the experiment on U-251 and > 96.8 µM (inactive) in the experiment with UACC-257.

Regarding `O=C(c1cc2ccccc2cc1O)N1CCCCC1`, the GI50 in the experiment with 786-0 is 59.4 µM (inactive); in the experiment with BT-549, 35.2 µM (inactive); in the experiment on DU-145, 64.1 µM (inactive); in the experiment on HCT-116 it was 39.6 µM (inactive); in the experiment with HOP-92 it was 11.4 µM (inactive); in the experiment with IGROV-1, 13.5 µM (inactive). Also, the GI50 is 55.1 µM (inactive) with LOX IMVI; 68.2 µM (inactive) with MDA-MB-231; 33.3 µM (inactive) in the experiment on MDA-MB-435; 15.3 µM (inactive) in the experiment on MOLT-4; 17.8 µM (inactive) in the experiment on NCI-H226; 27.7 µM (inactive) with NCI-H460. Moreover, the GI50 in the experiment with PC-3 is 29.8 µM (inactive); with RPMI-8226, 17.6 µM (inactive); in the experiment on SF-268, 36.1 µM (inactive); in the experiment with SNB-19, 28.5 µM (inactive); with SW-620, 48 µM (inactive); in the experiment on U-251, 52.4 µM (inactive). In addition, the GI50 in the experiment on UACC-257 was 53 µM (inactive).

`CCSC1=CC(=O)c2nc3ccccc3c3ccnc1c23`: the GI50 in the experiment on 786-0 is 3.04 µM (inactive); with BT-549 it was 12.9 µM (inactive); in the experiment with DU-145, 10.8 µM (inactive); in the experiment on HCT-116, 2.72 µM (inactive); with HOP-92, 11.4 µM (inactive); in the experiment with IGROV-1, 2.72 µM (inactive). Besides, the GI50 was 4.51 µM (inactive) in the experiment on LOX IMVI; 4.14 µM (inactive) in the experiment on MDA-MB-231; 1.77 µM (inactive) in the experiment with MDA-MB-435; 2.64 µM (inactive) with MOLT-4; 10.6 µM (inactive) with NCI-H226; 2.64 µM (inactive) in the experiment on NCI-H23. Also, the GI50 with NCI-H460 was 6.24 µM (inactive); in the experiment on PC-3, 2.17 µM (inactive); with RPMI-8226 it was 2.33 µM (inactive); with SF-268, 2.49 µM (inactive); with SNB-19, 42.2 µM (inactive); in the experiment on SW-620 it was 2.68 µM (inactive). Moreover, the GI50 with U-251 is 3.33 µM (inactive); with UACC-257 it was 1.95 µM (inactive).

As for `COc1ccc(C2(c3ccc(OC)cc3)OC(=O)c3cccc4cccc2c34)cc1`, the GI50 in the experiment with 786-0 is 5.41 µM (inactive); in the experiment on BT-549, 11.4 µM (inactive); in the experiment on DU-145, > 100 µM (inactive); with HCT-116, 3.71 µM (inactive); in the experiment with HOP-92 it was > 100 µM (inactive); in the experiment on IGROV-1 it was 5.93 µM (inactive). The GI50 with LOX IMVI was 8.89 µM (inactive); with MDA-MB-231 it was > 100 µM (inactive); in the experiment on MDA-MB-435, 2.69 µM (inactive); in the experiment on MOLT-4, 4.58 µM (inactive); in the experiment with NCI-H226, 27.6 µM (inactive); in the experiment with NCI-H23, 12.6 µM (inactive). In addition, the GI50 is 4.69 µM (inactive) in the experiment with NCI-H460; 2.16 µM (inactive) in the experiment with PC-3; 3.12 µM (inactive) in the experiment with RPMI-8226; > 100 µM (inactive) in the experiment with SF-268; 94 µM (inactive) with SNB-19; 5.18 µM (inactive) in the experiment on SW-620. The GI50 was 4.38 µM (inactive) in the experiment with U-251 and > 100 µM (inactive) in the experiment with UACC-257.

The record behind these values is ChEMBL document CHEMBL1201862, “PubChem BioAssay data set” (2004).
